Results taken from publication PMC7466280 (Cell, 2020).
Like-named read-outs stand apart in the source and are kept apart here.

Key:
[1] = biological target: T1, NTSR1 (Homo sapiens, UniProt P30989); assay: Confocal β-arrestin2 translocation assay in U2OS cells; assay type: cell-based; conditions: for β-arrestin2 translocation: NTSR1-expressing U2OS cells, ligand alone
[2] = biological target: T1, NTSR1; assay: NTSR1 internalization assay; assay type: cell-based
[3] = system: C57BL/6J mice; assay: Blood pressure measurement; assay type: in vivo, mouse; conditions: SBI-553 12 mg/kg i.p.; PD149163 0.3 mg/kg i.p.; 60 minutes post-treatment
[4] = biological target: T1, NTSR1; assay: IP3 BRET assay; assay type: cell-based; conditions: for effect on NTS-induced IP3 production: in combination with NTS; for IP3 generation: ligand alone, SBI-553 10 μM, SR142948A 10 μM
[5] = biological target: T1, NTSR1; assay: BRET β-arrestin2 recruitment assay in HEK293T cells; assay type: cell-based
[6] = system: C57BL/6J mice; assay: Methamphetamine conditioned place preference; conditions: 12 mg/kg i.p. 15 min prior to test
[7] = biological target: T1, NTSR1; assay: Apo-aequorin calcium assay; assay type: cell-based; conditions: for effect on NTS-induced Ca2+ mobilization: in combination with NTS (10 nM); for Ca2+ mobilization: ligand alone
[8] = system: C57BL/6J mice; assay: Contact righting test; assay type: in vivo, mouse; conditions: PD149163 i.p. 120 min, SBI-553 i.p. (up to 30 mg/kg) 30 min prior to testing
[9] = biological target: T1, NTSR1; assay: Gq protein activation by TGFα shedding assay; assay type: cell-based; conditions: for effect on NTS-induced Gq activation: in combination with NTS; for Gq activation: ligand alone
[10] = system: C57BL/6J mice; assay: Intravenous cocaine self-administration; assay type: in vivo, mouse
[11] = system: DAT KO mice; assay: L-DOPA-induced restoration of locomotion in dopamine depleted DAT KO mice; assay type: in vivo, mouse; conditions: 12 mg/kg i.p., AMPT dopamine-depleted DAT KO mice
[12] = system: C57BL/6J mice; assay: Stimulant-induced hyperlocomotion in the open field; assay type: in vivo, mouse; conditions: 12 mg/kg i.p.
[13] = biological target: T1, NTSR1; assay: Radioligand binding to NTSR1-containing HEK293T cell membranes
[14] = system: C57BL/6J mice; assay: Horizontal wire test; assay type: in vivo, mouse; conditions: PD149163 i.p. 120 min, SBI-553 i.p. (up to 30 mg/kg) 30 min prior to testing
[15] = biological target: T1, NTSR1; assay: Phosphorylated ERK detection by western blot; assay type: cell-based
[16] = biological target: T1, NTSR1; assay: Phosphorylated NTSR1 detection by western blot; assay type: cell-based; conditions: NTSR1-expressing HEK293T cells; NTS 10 nM, SBI-553 10 μM, SR142948A 10 μM
[17] = system: C57BL/6J mice; assay: Core body temperature measurement; assay type: in vivo, mouse; conditions: PD149163 0.1 – 1 mg/kg i.p.; SBI-553 2–30 mg/kg i.p.
[18] = system: β-arrestin2 KO mice; assay type: in vivo, mouse; conditions: 12 mg/kg i.p.; for cocaine-induced hyperlocomotion: cocaine 30 mg/kg i.p.
[19] = system: C57BL/6J mice; assay: Oral SBI-553 modulation of PD149163-induced hypothermia and hypoactivity; assay type: in vivo, mouse; conditions: SBI-553 10, 30, 100 mg/kg p.o. 30 min prior to PD149163 i.p.
[20] = low-concentration NTS, maximal levels not altered
[21] = 12 mg/kg i.p., cocaine 0.1 mg/kg/infusion
[22] = [3H]NTS saturation binding with SBI-553 0.01 – 10 μM
[23] = HEK293T cells expressing human NTSR1, SBI-553 10 μM, SR142948A 10 μM

T1 sequence (P30989 whole entry): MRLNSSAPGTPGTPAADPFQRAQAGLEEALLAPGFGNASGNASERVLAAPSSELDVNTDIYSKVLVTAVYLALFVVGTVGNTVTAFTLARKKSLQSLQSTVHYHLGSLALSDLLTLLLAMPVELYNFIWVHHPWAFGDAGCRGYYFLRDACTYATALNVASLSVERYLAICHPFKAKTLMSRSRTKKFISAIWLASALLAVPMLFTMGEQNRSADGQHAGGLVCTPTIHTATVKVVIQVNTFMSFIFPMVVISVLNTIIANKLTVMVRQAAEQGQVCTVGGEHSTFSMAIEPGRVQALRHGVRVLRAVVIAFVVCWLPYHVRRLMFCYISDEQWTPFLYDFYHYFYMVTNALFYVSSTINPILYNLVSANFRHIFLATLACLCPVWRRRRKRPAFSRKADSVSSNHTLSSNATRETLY

COc1ccccc1C1CCN(c2nc(C3(F)CC3)nc3ccc(N(C)CCO)cc23)CC1 [SBI-553]
β-arrestin2 translocation in U2OS cells lacking NTSR1 ([1]; NTS 200 nM, SBI-553 7.5 μM, 40 min): Neither NTS nor SBI-553 treatment stimulated β-arrestin2 translocation
β-arrestin2 translocation [1]: stimulated β-arrestin2 translocation to the plasma membrane
effect of pretreatment on NTS-induced β-arrestin2 translocation [1, 20]: enhanced
NTSR1 internalization ([2]; ligand alone): stimulated NTSR1 internalization
effect of pretreatment on NTS-induced NTSR1 internalization [2, 20]: enhanced
peak systolic pressure vs vehicle [3]: no differences
effect on NTS-induced IP3 production [4]: attenuated
IP3 generation [4]: neither SBI-553 nor SR142948A stimulated
β-arrestin2 recruitment to NTSR1 ([5]; ligand alone): stimulated β-arrestin2 recruitment
effect of pretreatment on NTS-induced β-arrestin2 recruitment to NTSR1 ([5]; low-concentration NTS): enhanced
expression of methamphetamine conditioned place preference [6]: blocked the expression of methamphetamine conditioned place preference
effect on NTS-induced Ca2+ mobilization [7]: attenuated
Ca2+ mobilization [7]: neither SBI-553 nor SR142948A stimulated
righting reflex [8]: failed to influence
effect on NTS-induced Gq activation [9]: attenuated
Gq activation [9]: neither SBI-553 nor the antagonist SR142948A had any effect
lever discrimination (percent responses at active and inactive levers) ([10]; 12 mg/kg i.p., 3-day test): lever discrimination was unchanged
activity at the inactive lever [10, 21]: unchanged across treatments
cocaine intake, level of the vehicle control [10, 21]: less than 20%
latency to initiate lever responding [10, 21]: increased the latency to initiate lever responding
percent of lever responses during the post-reinforcement cue period [10, 21]: reduced the percent of lever responses that occurred during the post-reinforcement cue period
cumulative self-administered cocaine reinforcements ([10]; 12 mg/kg i.p., cocaine 0.1 mg/kg/infusion, FR4, 60 min session): fewer cumulative self-administered reinforcements between 20 and 60 min
total and active lever responses ([10]; 12 mg/kg i.p., cocaine 0.1 mg/kg/infusion, relative to Vehicle and No Treatment): significantly suppressed total and active lever responses
cocaine self-administration at the highest cocaine dose ([10]; SBI-553 2, 6, 12 mg/kg i.p., cocaine 1 mg/kg/infusion): No change in self-administration
lever accuracy ([10]; SBI-553 2, 6, 12 mg/kg i.p., cocaine 0.1-1 mg/kg/infusion): not altered by SBI-553 treatment
cocaine self-administration dose-response ([10]; SBI-553 6, 12 mg/kg, cocaine 0.1, 0.3, 0.5 mg/kg/infusion): greater efficacy at lower cocaine infusion doses
L-DOPA-induced restoration of locomotion [11]: attenuated
locomotor response vs vehicle in non-stimulant exposed animals [12]: comparable
cocaine-induced hyperlocomotion ([12]; cocaine 30 mg/kg i.p.): attenuate cocaine-induced hyperlocomotion
methamphetamine-induced hyperlocomotion ([12]; methamphetamine 2 mg/kg): reduced
effect on total [3H]NTS binding ([13]; 5 nM [3H]NTS, 10 μM unlabeled ligand): increased total [^3H]NTS binding
increase of NTS affinity for NTSR1 (Kd) [13, 22]: up to 3.9 fold
increase of number of available [3H]NTS binding sites (Bmax) [13, 22]: up to 3.3 fold
wire-hang test, latency to grasp the wire [14]: failed to influence
pERK generation ([15]; HEK293T cells expressing human NTSR1, ligand alone, NTS 10 nM, SBI-553 10 μM): failed to elicit pERK generation
effect of pretreatment on NTS-induced pERK [15, 23]: blunted the early sharp peak in pERK
NTS-induced pERK, NTS alone vs NTS in combination with SBI-553 ([15]; HEK293 cells lacking the Gq/11 protein (Gq-null)): comparable pERK time courses
effect of pretreatment on NTS-induced pERK ([15]; β-arrestin1/2-null HEK293 cells): blocked in its entirety
NTSR1 phosphorylation (phosphothreonine blot) [16]: resulted in NTSR1 phosphorylation
core body temperature [17]: no effect on core body temperature
methamphetamine-induced hyperlocomotion ([18]; A2aR-Cre animals (deletion in striatal D2R-expressing neurons)): no SBI-553 effects were observed
methamphetamine-induced hyperlocomotion ([18]; D1RCre animals (β-arrestin2 deletion in D1R-expressing neurons)): effectively reduced
methamphetamine-induced hyperlocomotion ([18]; D2R-Cre mice (β-arrestin2 deletion in D2R-expressing neurons)): failed to affect locomotion
methamphetamine-induced hyperlocomotion ([18]; DAT-Cre mice (deletion in midbrain D2R-expressing neurons)): reduced the methamphetamine-induced hyperlocomotion
cocaine-induced hyperlocomotion ([18]; WT mice on C57BL/6J background): decrease
methamphetamine-induced hyperlocomotion ([18]; WT mice on C57BL/6J background, methamphetamine 2 mg/kg i.p.): decrease
cocaine-induced hyperlocomotion ([18]; global β-arrestin2 knockout mice): a significant reduction in locomotion was absent
methamphetamine-induced hyperlocomotion ([18]; global β-arrestin2 knockout mice, methamphetamine 2 mg/kg i.p.): a significant reduction in locomotion was absent
methamphetamine-induced hyperlocomotion ([18]; β-arrestin2 f/f Cre negative littermate controls): effectively reduced
PD149163-induced reduction in core body temperature [19]: dose-dependently attenuated
PD149163-induced reduction in horizontal activity in the open field [19]: dose-dependently attenuated

COc1cccc(OC)c1-c1cc(C(=O)NC2(C(=O)O)C3CC4CC(C3)CC2C4)nn1-c1ccc(C(=O)N(C)CCCN(C)C)cc1C(C)C (stereo not drawn) [SR142948A, reference compound]
block of NTS- and SBI-553-induced β-arrestin2 translocation ([1]; NTS 5 nM or SBI-553 10 μM): antagonized NTS-induced, but not SBI-553-induced
β-arrestin2 translocation [1]: without effect
block of NTS- and SBI-553-induced NTSR1 internalization ([2]; NTS 10 nM or SBI-553 10 μM): antagonized NTS-induced, but not SBI-553-induced
effect on NTS-induced IP3 production [4]: attenuated
IP3 generation [4]: neither SBI-553 nor SR142948A stimulated
block of NTS- and SBI-553-induced β-arrestin2 recruitment to NTSR1 [5]: antagonized NTS-induced, but not SBI-553-induced
effect on NTS-induced Ca2+ mobilization [7]: attenuated
Ca2+ mobilization [7]: neither SBI-553 nor SR142948A stimulated
effect on NTS-induced Gq activation [9]: attenuated
Gq activation [9]: neither SBI-553 nor the antagonist SR142948A had any effect
displacement of [3H]SBI-553 from NTSR1 ([13]; 100 nM [3H]SBI-553, 10 μM unlabeled competitor, YOx beads): not displaced
effect of pretreatment on NTS-induced pERK [15, 23]: abolished
